Each structure is given as a SMILES string.

The nature of the series: Stability test of indacaterol maleate-glycopyrronium bromide compositions at different pH (Example 7). Type of series: physicochemical. As to conditions: 4 weeks at 60° C. The protocol:
The soft mist solutions of indatarol indacaterol maleate and glycopyrronium bromide at different pH were prepared as follows. Six 0.02 mM citric acid solution each 500 mL were prepared. pH was adjusted to 2.5, 3.0, 3.5, 4.0, 4.5, and 5.0 with 1 M (mol/L) of sodium hydroxide solution. Indacaterol maleate and glycopyrronium bromide were added. In order to improve the dissolution of indacaterol, all the drug solutions were ultrasonicated in a water bath at 30° C. for 20 min until no visible particles were found.
The drug solutions were placed in glass bottles and stability test was performed to determine the contents of indacaterol and glycopyrronium bromide and total impurities in the samples at the initial state and after 4 weeks at 60° C.

Take `CCc1cc2c(cc1CC)CC(NC[C@H](O)c1ccc(O)c3[nH]c(=O)ccc13)C2` [Indacaterol, indacaterol]: the “optimal (best) pH for stability” value was found to be 3.5.

For the molecule `C[N+]1(C)CCC(OC(=O)C(O)(c2ccccc2)C2CCCC2)C1` (centres unmarked) [glycopyrronium bromide], the “pH at which the active ingredient is stable” value is recorded as 2.5-3.5.

The values are drawn from patent US20260069601A1, “PHARMACEUTICAL COMPOSITION FOR INHALATION FOR PREVENTING OR TREATING RESPIRATORY DISEASE” (LEXENPHARM (SUZHOU) LIMITED, priority 2022, published 2026).
